This passage reports IC50 results from US9145415B2, “Nitrogen-containing heterocyclic compound or salt thereof” (FUJIFILM Corporation, priority 2012, dated 2015).

The target of assay [1] is T1, human FLT3 protein (FLT3 (WT)) (Homo sapiens, UniProt P36888).
T1 construct: human FLT3 protein (intracellular region, 564 to 993 aa); GST; purchased Carna Biosciences; host or cells: baculovirus expression system
T1 sequence (P36888 564-993): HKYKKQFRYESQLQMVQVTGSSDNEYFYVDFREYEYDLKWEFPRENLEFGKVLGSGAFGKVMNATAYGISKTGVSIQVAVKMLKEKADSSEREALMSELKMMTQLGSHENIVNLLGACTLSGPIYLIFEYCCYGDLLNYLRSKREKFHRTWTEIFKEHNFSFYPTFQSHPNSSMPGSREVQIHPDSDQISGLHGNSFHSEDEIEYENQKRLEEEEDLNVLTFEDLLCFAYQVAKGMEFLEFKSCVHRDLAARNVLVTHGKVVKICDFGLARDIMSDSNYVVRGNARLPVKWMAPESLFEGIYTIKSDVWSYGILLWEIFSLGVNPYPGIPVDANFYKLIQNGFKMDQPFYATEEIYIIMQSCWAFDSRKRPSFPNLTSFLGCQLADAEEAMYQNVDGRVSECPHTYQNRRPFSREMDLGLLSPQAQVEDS
As to the kind of experiment: FLT3 inhibition test (FLT3 enzyme inhibition, time-resolved fluorescence of substrate peptide phosphorylation). The class given is biochemical. Particulars: read-out: FLT3 (WT) enzyme inhibition activity. An outline of the steps: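 Wild-type human FLT3 (1.2 μg) pre-incubated with compound 15 min at 25° C in 100 mM HEPES pH 7.5, 10 mM MgCl2, 25 mM NaCl, 1 mM DTT. Reaction started with substrate peptide and ATP (final 50 μM), run 30 min at 25° C; phosphorylation read by time-resolved fluorescence.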

The subject of the next assay is Molm-13 cells. As to the kind of experiment: Leukemia cell proliferation inhibition test (ATPlite), Molm-13. The class given is cell-based. Particulars: Homo sapiens, read-out: MOLM13 cell proliferation inhibition effect. An outline of the steps: (§1)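 72 h proliferation, 37° C/5% CO2; 10,000 cells/well, RPMI/10% FBS; ATPlite luminescence (RLU); 0.1% DMSO taken as 0% inhibition; GI50 via sigmoid fit, n=2.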
(In general: Cellular ATP, detected with luciferase, serves as a proxy for viable cell number.)

The subject of the next assay is MV4-11 cells. As to the kind of experiment: Leukemia cell proliferation inhibition test (ATPlite), MV4-11. The class given is cell-based. Particulars: Homo sapiens, read-out: MV4-11 cell proliferation inhibition effect. The method, boiled down: as §1
Where [2] appears, read: GST-fused human FLT3 (564 to 993 aa), ATP 50 μM.
The mark [3] stands for this setting: MOLM-13, 72 h, Molm-13, 72 hours culture, ATPlite, GI50 per method.
The mark [4] stands for this setting: MV4-11, 72 h, MV4-11, 72 hours culture, ATPlite, GI50 per method.

The structures appear in SMILES notation. Where two headings read alike, the source gives them in different places.

Turning to `CCCNc1nc(Nc2ccc3c(c2)c(OC)nn3CCOC)ncc1C#CCCCNC(=O)[C@H](C)N(C)C(=O)/C=C/CN(C)C` [Compound 22-14], the IC50 is less than 10 nM in assay [1] (FLT3 (WT)); less than 10 nM in the assay on Molm-13 cells (MOLM-13, MOLM13 cell); less than 10 nM with MV4-11 cells (MV4-11, MV4-11 cell).

On to `CN(C)C/C=C/C(=O)N(C)CC(=O)NCCCC#Cc1cnc(Nc2ccc(F)cc2)nc1NCCCF` [Compound 10-21], for which the IC50 (in assay [1] (setting [2]); in the assay on Molm-13 cells (setting [3]); in the assay on MV4-11 cells (setting [4])) was less than 10 nM each time.

With `C=CC(=O)NCC(=O)Nc1cccc(NC(=O)c2cnc(NCCc3ccncc3)nc2NCCC)c1` [Compound 2-1, N-(3-(2-(acrylylamido)acetamido)phenyl)-4-(propylamino)-2-((2-(pyridin-4-yl)ethyl)amino)pyrimidine-5-carboxamide], the IC50 in assay [1] (setting [2]) is less than 10 nM; in the assay with Molm-13 cells (Molm-13, 72 hours culture, ATPlite, GI50 per method), 10 to 100 nM; with MV4-11 cells (MV4-11, 72 hours culture, ATPlite, GI50 per method) it was 10 to 100 nM.

Regarding `COc1nc(Nc2ccc(F)nc2)ncc1C#C[C@@H]1CCC[C@H](NC(=O)[C@H](C)N(C)C(=O)/C=C/CN(C)C)C1` [Compound 15-2], the IC50 in assay [1] (setting [2]) is less than 10 nM; with Molm-13 cells (setting [3]), 10 to 100 nM; in the assay on MV4-11 cells (setting [4]) it was less than 10 nM.

`CCCNc1nc(Nc2ccc(C#N)cc2)ncc1C#CCCCNC(=O)[C@@H]1CC(F)(F)CN1C(=O)/C=C/CN(C)C` [Compound 7-54]: the IC50 in assay [1] (setting [2]) is 10 to 100 nM; in the assay with Molm-13 cells (setting [3]), less than 10 nM; in the assay on MV4-11 cells (setting [4]) it was less than 10 nM.

Turning to `CCCNc1nc(Nc2ccc(C(N)=O)cc2)ncc1C(=O)NCCCNC(C)(C)CNC(=O)/C=C/CN(C)C` [Compound 3-24], the values for the IC50 (in assay [1] (setting [2]); in the assay with Molm-13 cells (setting [3]); in the assay on MV4-11 cells (setting [4])) were less than 10 nM, 100 to 1000 nM and 10 to 100 nM, respectively.

For the compound `CCOc1nc(Nc2cccc(F)c2)ncc1C#C[C@@H]1CCC[C@H](NC(=O)[C@H](C)N(C)C(=O)/C=C/CN(C)C)C1` [Compound 21-19], the IC50 (in assay [1] (setting [2]); in the assay on Molm-13 cells (setting [3]); in the assay on MV4-11 cells (setting [4])) was less than 10 nM throughout.

As for `C=CC(=O)N(C)CC(=O)NC(CC)CCNC(=O)c1cnc(NCCc2ccncc2)nc1NCCC` (stereo not drawn) [Compound 1-7], the figures for the IC50 (in assay [1] (setting [2]); in the assay with Molm-13 cells (setting [3]); with MV4-11 cells (setting [4])) were less than 10 nM, less than 10 nM and 10 to 100 nM, respectively.

`CCCNc1nc(Nc2ccc(C#N)cc2)ncc1C#C[C@H]1C[C@@H](NC(=O)[C@H](C)N(C)C(=O)/C=C/CN(C)C)C1` [Compound 13-9]: the IC50 (in assay [1] (setting [2]); in the assay on Molm-13 cells (setting [3]); in the assay with MV4-11 cells (setting [4])) was less than 10 nM in each case.

As to `COCCNc1nc(Nc2ccc(F)cc2)ncc1C#C[C@@H]1CCC[C@H](NC(=O)[C@H](C)N(C)C(=O)/C=C/CN(C)C)C1` [Compound 22-37], the IC50 in assay [1] (FLT3 (WT)) was less than 10 nM; with Molm-13 cells (MOLM-13, MOLM13 cell), less than 10 nM; in the assay on MV4-11 cells (MV4-11, MV4-11 cell) it was less than 10 nM.

On to `CCCNc1nc(NCCc2ccncc2)ncc1C(=O)Nc1cccc(NC(=O)CNC(=O)/C=C/CN2CC(C)NC(C)C2)c1` (stereo not drawn) [Compound 2-15], for which the IC50 in assay [1] (setting [2]) was less than 10 nM; in the assay with Molm-13 cells (setting [3]), 100 to 1000 nM; in the assay on MV4-11 cells (setting [4]) it was 100 to 1000 nM.

As for `CCCNc1nc(Nc2ccc(C)nc2)ncc1C#CCCCNC(=O)[C@H](C)N(C)C(=O)/C=C/CN(C)C` [Compound 21-17], the IC50 in assay [1] (setting [2]) is less than 10 nM; with Molm-13 cells (setting [3]), 10 to 100 nM; in the assay with MV4-11 cells (setting [4]), less than 10 nM.

Regarding `C=CC(=O)N(C)CC(=O)NCCCNC(=O)c1cnc(Nc2ccc3cnncc3c2)nc1NCCC` [Compound 6-10A, N-(3-(2-(N-methylacrylylamido)actamido)propyl)-2-((phthalazin-6-yl)amino)-4-(propylamino)pyrimidine-5-carboxamide], the IC50 was less than 10 nM in assay [1] (setting [2]), 100 to 1000 nM in the assay with Molm-13 cells (setting [3]) and 10 to 100 nM in the assay with MV4-11 cells (setting [4]).

Regarding `CCCNc1nc(Nc2ccc(C(N)=O)cc2)ncc1C(=O)Nc1ccccc1CNC(=O)[C@H](C)N(C)C(=O)/C=C/CN(C)C` [Compound 3-15], the results for the IC50 (in assay [1] (setting [2]); with Molm-13 cells (setting [3]); in the assay on MV4-11 cells (setting [4])) were less than 10 nM, 100 to 1000 nM and 100 to 1000 nM, respectively.

Regarding `COCCCNc1nc(Nc2ccc(F)nc2)ncc1C#CCCCNC(=O)[C@H](C)N(C)C(=O)/C=C/CN(C)C` [Compound 10-30], the IC50 in assay [1] (setting [2]) is less than 10 nM; with Molm-13 cells (setting [3]), 10 to 100 nM; in the assay with MV4-11 cells (setting [4]) it was less than 10 nM.

Regarding `C=CC(=O)NC(C)(C)C(=O)NCCCNC(=O)c1cnc(Nc2ccc3cnccc3c2)nc1NCCC` [Compound 6-7], the IC50 was less than 10 nM in assay [1] (setting [2]), 10 to 100 nM in the assay on Molm-13 cells (setting [3]) and 10 to 100 nM in the assay with MV4-11 cells (setting [4]).

For `CCCNc1nc(Nc2ccc(C(N)=O)cc2)ncc1C#CCCCNC(C)(C)CNC(=O)/C=C/CN(C)C` [Compound 8-10], the IC50 is less than 10 nM in assay [1] (setting [2]), 10 to 100 nM in the assay on Molm-13 cells (setting [3]) and less than 10 nM in the assay with MV4-11 cells (setting [4]).

Regarding `CCCNc1nc(Nc2cccc(F)c2)ncc1C#CCCCNC(=O)[C@@H]1CCN1C(=O)/C=C/CN(C)C` [Compound 7-51], the IC50 (in assay [1] (setting [2]); with Molm-13 cells (setting [3]); with MV4-11 cells (setting [4])) was less than 10 nM in each case.

Regarding `CCCNc1nc(Nc2ncc(C#N)s2)ncc1C#CCCCNC(=O)[C@H](C)N(C)C(=O)/C=C/CN(C)C` [Compound 22-22], the IC50 is less than 10 nM in assay [1] (FLT3 (WT)); less than 10 nM in the assay on Molm-13 cells (MOLM-13, MOLM13 cell); less than 10 nM in the assay on MV4-11 cells (MV4-11, MV4-11 cell).

Consider `CCCNc1nc(Nc2ccc(C(N)=O)cc2)ncc1CCCCCNC(=O)CNC(=O)/C=C/CN(C)C` [Compound 7-29], for which the IC50 was less than 10 nM in assay [1] (setting [2]), 100 to 1000 nM in the assay with Molm-13 cells (setting [3]) and 10 to 100 nM in the assay with MV4-11 cells (setting [4]).

Consider `CCCNc1nc(Nc2ccc(C#N)cc2)ncc1C#CCCCNC(=O)[C@H](CC)N(C)C(=O)/C=C/CN(C)C` [Compound 7-34], for which the IC50 (in assay [1] (setting [2]); in the assay on Molm-13 cells (setting [3]); in the assay with MV4-11 cells (setting [4])) was less than 10 nM throughout.

Consider `CCCNc1nc(Nc2cccc(F)c2)ncc1C#C[C@H]1CCCC(NC(=O)[C@H](C)N(C)C(=O)/C=C/CN(C)C)C1` (stereo in doubt) [Compound 13-2, (E)-4-(dimethylamino)-N—((S)-1-(((1R,3S)-3-((2-((3-fluorophenyl)amino)-4-(propylamino)pyrimidin-5-yl)ethynyl)cyclohexyl)amino)-1-oxopropan-2-yl)-N-methyl-2-butenamide], for which the IC50 was less than 10 nM in assay [1] (setting [2]), 10 to 100 nM in the assay on Molm-13 cells (setting [3]) and 10 to 100 nM in the assay with MV4-11 cells (setting [4]).

Regarding `Cc1ccc(Nc2nc(Nc3ccc(C#N)cc3)ncc2C#CCCCNC(=O)[C@H](C)N(C)C(=O)/C=C/CN(C)C)cc1` [Compound 10-23], the IC50 (in assay [1] (setting [2]); with Molm-13 cells (setting [3]); with MV4-11 cells (setting [4])) was less than 10 nM each time.

`CCCNc1nc(Nc2ccc(C#N)cc2)ncc1C#C[C@H]1CCC[C@@H](NC(=O)[C@H](C)N(C)C(=O)/C=C/CN(C)C)C1` [Compound 13-3]: the IC50 in assay [1] (setting [2]) was less than 10 nM; in the assay with Molm-13 cells (setting [3]), 10 to 100 nM; with MV4-11 cells (setting [4]) it was less than 10 nM.

For the compound `CCCN(CCC)c1nc(Nc2cccc(F)c2)ncc1C#CCCCNC(=O)[C@H](C)N(C)C(=O)/C=C/CN(C)C` [Compound 10-10], the IC50 (in assay [1] (setting [2]); in the assay with Molm-13 cells (setting [3]); in the assay on MV4-11 cells (setting [4])) was less than 10 nM in each case.

For the compound `CCCNc1nc(Nc2ccc(C(N)=O)cc2)ncc1C(=O)NC1CCCC(NC(=O)CNC(=O)/C=C/CN(C)C)C1` (stereo not drawn) [Compound 3-3], the IC50 in assay [1] (setting [2]) is less than 10 nM; in the assay on Molm-13 cells (setting [3]), 10 to 100 nM; with MV4-11 cells (setting [4]), 10 to 100 nM.

For `CCNc1nc(Nc2ccc(C#N)cc2)ncc1C#C[C@@H]1CCC[C@H](NC(=O)[C@H](C)N(C)C(=O)/C=C/CN(C)C)C1` [Compound 21-28], the IC50 (in assay [1] (setting [2]); in the assay with Molm-13 cells (setting [3]); in the assay on MV4-11 cells (setting [4])) was less than 10 nM in each case.

In the case of `COCCCNc1nc(Nc2ccnc(OC)c2)ncc1C#CCCCNC(=O)[C@@H]1CCCN1C(=O)/C=C/CN(C)C` [Compound 9-32, (S,E)-1-(4-(Dimethylamino)-2-butenoyl)-N-(5-(4-((3-methoxypropyl)amino)-2-((methoxypyridin-4-yl)amino)pyrimidin-5-yl)-4-pentyn-1-yl)pyrrolidine-2-carboxamide], the IC50 (in assay [1] (setting [2]); in the assay with Molm-13 cells (setting [3]); with MV4-11 cells (setting [4])) was less than 10 nM in each case.

As to `CNc1nc(Nc2ccc(OC)c(F)c2)ncc1C#C[C@@H]1CCC[C@H](NC(=O)[C@H](C)N(C)C(=O)/C=C/CN(C)C)C1` [Compound 21-32, (E)-4-(Dimethylamino)-N—((S)-1-(((1S,3R)-3-((2-((3-fluoro-4-methoxyphenyl)amino)-4-(methylamino)pyrimidin-5-yl)ethynyl)cyclohexyl)amino)-1-oxopropan-2-yl)-N-methyl-2-butenamide], the IC50 in assay [1] (FLT3 (WT)) was less than 10 nM; in the assay with Molm-13 cells (MOLM-13, MOLM13 cell) it was less than 10 nM; with MV4-11 cells (MV4-11, MV4-11 cell) it was less than 10 nM.
